Tests used:
MDA-MB-231 xenograft = assay: Antitumor activity in the MDA-MB-231 xenograft model in nude mice; format: in vivo; details: 3 mg/kg, weekly dose for 4 weeks (qwk×4, iv), start at average tumor volume 80 mm^3
Method: Treatments started when the tumors reached an average volume of 80 mm^3 Example 24 was given intravenously, weekly dose for 4 weeks (qwk×4, iv) at 10 mg/kg. Example 2 was given weekly dose for 4 weeks (qwk×4, iv) at 3 mg/kg. Control treatment was given vehicle control. Each group has 8-10 mice and each mouse has one tumor.

[1] = target: XIAP linker-BIR2-BIR3 (residues 120-356) (Homo sapiens (Human), UniProt P98170); assay: Fluorescence polarization (FP) based competitive binding assay, XIAP linker-BIR2-BIR3; details: FP competitive assay, Smac-1F probe; read-out: Binding Affinities IC50 (nM) XIAP Protein
Method: (§1) For cIAP-1 BIR3 and cIAP-2 BIR3 assays, a fluorescently labeled Smac mimetic (Smac-2F) was used as the fluorescent probe. The Kd values of Smac-2F to cIAP-1 BIR3 and cIAP-2 BIR3 were determined by monitoring the total fluorescence polarization of mixtures composed with the fluorescent probe at a fixed concentration and proteins with increasing concentrations up to full saturation. Fluorescence polarization values were measured using the Infinite M-1000 plate reader (Tecan U.S., Research Triangle Park, N.C.) in Microfluor 2 96-well, black, round-bottom plates (Thermo Scientific). To each well, 1 nM of SMAC-2F and increasing concentrations of protein were added to a final volume of 125 μl in the assay buffer (100 mM potassium phosphate, pH 7.5, 100 μg/ml bovine γ-globulin, 0.02% sodium azide, Invitrogen, with 4% DMSO). Plates were incubated at room temperature for 1-2 hours and mixed with gentle shaking to assure equilibrium. […] Equilibrium dissociation constants (Kd) were then calculated by fitting the sigmoidal dose-dependent FP increases as a function of protein concentrations using Graphpad Prism 5.0 software (Graphpad Software, San Diego, Calif.).
(§2) Mixtures of 5 μl of the tested compounds in DMSO and 120 μl of preincubated protein/tracer complex in the assay buffer (100 mM potassium phosphate, pH 7.5, 100 μg/ml bovine γ-globulin, 0.02% sodium azide, Invitrogen) were added into assay plates and incubated at room temperature for 2 hours with gentle shaking. Final concentrations of proteins and probes were 3 nM and 1 nM, 5 nM and 1 nM for assays for cIAP-1 BIR3 and cIAP-2 BIR3, respectively. […] FP values were measured as described above. IC50 values were determined by nonlinear regression fitting of the competition curves. The Ki values of competitive inhibitors were calculated using the derived equation described previously, based upon the measured IC50 values, the Kd values of the probe to different proteins, and the concentrations of the proteins and probes in the competitive assays.
The FP-based assay for XIAP linker-BIR2-BIR3 protein was performed with the same procedures. In this assay, a bivalent fluorescently tagged peptidic Smac mimetic (Smac-1F) was used as the fluorescent probe whose Kd value to XIAP linker-BIR2-BIR3 was determined similarly through the saturation experiments. 0.01% of Triton X-100 was added in the assay buffer to achieve stable fluorescence and polarization value of the dimeric fluorescent probe. Final protein and probe concentrations utilized in the competitive assay were 3 nM and 1 nM, respectively.

[2] = target: cIAP1-BIR3 (residues 253-363) (Homo sapiens (Human), UniProt Q13490); assay: Fluorescence polarization (FP) based competitive binding assay, cIAP1-BIR3; details: Smac-2F probe, read-out: Binding Affinities IC50 (nM) cIAP1 Protein
Method: as §1, §2

[3] = target: cIAP-2 BIR3 (residues 238-349) (Homo sapiens (Human), UniProt Q13489); assay: Fluorescence polarization (FP) based competitive binding assay, cIAP-2 BIR3; details: FP competitive assay, Smac-2F probe; read-out: Binding Affinities IC50 (nM) cIAP2 Protein
Method: as §1, §2

[4] = test system: MDA-MB-231 breast cancer cell line; assay: Inhibition of cell growth in MDA-MB-231 breast cancer cell line; format: cell-based, human; details: Homo sapiens
[5] = test system: SK-OV-3 ovarian cancer cell line; assay: Inhibition of cell growth in SK-OV-3 ovarian cancer cell line; format: cell-based, human; details: Homo sapiens
[6] = MDA-MB-231 breast cancer cell line
[7] = SK-OV-3 ovarian cancer cell line
[8] = MDA-MB-231, MDA-MB-231 breast cancer cell line
[9] = SK-OV-3, SK-OV-3 ovarian cancer cell line

IC50 [4, 6] [nM]	IC50 [5, 7] [nM]	SMILES	Antitumor activity (mean tumor volume) (MDA-MB-231 xenograft)	IC50 [1] [nM]	IC50 [2] [nM]	IC50 [3] [nM]	IC50 [4, 8] [nM]	IC50 [5, 9] [nM]
–	–	CN[C@@H](C)C(=O)N[C@H]1CN(C(=O)Nc2ccc(NC(=O)N3CC[C@H]4CC[C@@H](C(=O)NC(c5ccccc5)c5ccccc5)N4C(=O)[C@@H](NC(=O)[C@H](C)NC)C3)cc2)CC[C@H]2CCC(C(=O)NC(c3ccccc3)c3ccccc3)N2C1=O (stereo partly shown) [Example 2]	Tumor regression was achieved	–	–	–	–	–
< 1000	< 1000	CN[C@@H](C)C(=O)N[C@H]1CN(S(=O)(=O)CCC/C=C/CCCS(=O)(=O)N2CC[C@H]3CC[C@@H](C(=O)NC(c4ccccc4)c4ccccc4)N3C(=O)[C@@H](NC(=O)[C@H](C)NC)C2)CC[C@H]2CCC(C(=O)NC(c3ccccc3)c3ccccc3)N2C1=O (stereo partly shown) [Example 8]	–	< 10	< 100	< 100	–	–
< 1000	< 1000	CN[C@@H](C)C(=O)N[C@H]1CN(S(=O)(=O)CCCCCCS(=O)(=O)N2CC[C@H]3CC[C@@H](C(=O)NC(c4ccccc4)c4ccccc4)N3C(=O)[C@@H](NC(=O)[C@H](C)NC)C2)CC[C@H]2CCC(C(=O)NC(c3ccccc3)c3ccccc3)N2C1=O (stereo partly shown) [Example 9]	–	< 10	< 100	< 100	–	–
< 1000	< 1000	CN[C@@H](C)C(=O)N[C@H]1CN(S(=O)(=O)CCCCCCCCS(=O)(=O)N2CC[C@H]3CC[C@@H](C(=O)NC(c4ccccc4)c4ccccc4)N3C(=O)[C@@H](NC(=O)[C@H](C)NC)C2)CC[C@H]2CCC(C(=O)NC(c3ccccc3)c3ccccc3)N2C1=O (stereo partly shown) [Example 10]	–	< 10	< 100	< 100	–	–
–	–	CN[C@@H](C)C(=O)N[C@H]1CN(C(=O)Nc2ccc(Cc3ccc(NC(=O)N4CC[C@H]5CC[C@@H](C(=O)N[C@@H]6CCCc7ccccc76)N5C(=O)[C@@H](NC(=O)[C@H](C)NC)C4)cc3)cc2)CC[C@H]2CCC(C(=O)N[C@@H]3CCCc4ccccc43)N2C1=O (stereo partly shown) [Example 12]	–	< 10	< 100	< 100	< 100	< 100
–	–	CN[C@@H](C)C(=O)N[C@H]1CN(C(=O)NCCCCCCNC(=O)N2CC[C@H]3CC[C@@H](C(=O)NC(c4ccccc4)c4ccccc4)N3C(=O)[C@@H](NC(=O)[C@H](C)NC)C2)CC[C@H]2CCC(C(=O)NC(c3ccccc3)c3ccccc3)N2C1=O (stereo partly shown) [Example 13]	–	< 30	< 300	< 300	< 100	< 100
–	–	CN[C@@H](C)C(=O)N[C@H]1CN(C(=O)Nc2ccc(NC(=O)N3CC[C@H]4CC[C@@H](C(=O)N[C@H]5C[C@@H]5c5ccc(F)cc5)N4C(=O)[C@@H](NC(=O)[C@H](C)NC)C3)cc2)CC[C@H]2CC[C@@H](C(=O)N[C@H]3C[C@@H]3c3ccc(F)cc3)N2C1=O [Example 29]	–	< 1000	< 1000	< 1000	< 5000	< 5000
–	–	CN[C@@H](C)C(=O)N[C@H]1CN(C(=O)Nc2ccc(NC(=O)N3CC[C@H]4CC[C@@H](C(=O)N[C@@H]5CCC[C@H]5c5ccccc5)N4C(=O)[C@@H](NC(=O)[C@H](C)NC)C3)cc2)CC[C@H]2CC[C@@H](C(=O)N[C@@H]3CCC[C@H]3c3ccccc3)N2C1=O [Example 32]	–	< 3000	< 3000	< 3000	< 1000	< 1000
–	–	CN[C@@H](C)C(=O)N[C@H]1CN(C(=O)Nc2ccc(NC(=O)N3CC[C@H]4CC[C@@H](C(=O)N[C@H]5CCC[C@@H]5c5ccccc5)N4C(=O)[C@@H](NC(=O)[C@H](C)NC)C3)cc2)CC[C@H]2CC[C@@H](C(=O)N[C@H]3CCC[C@@H]3c3ccccc3)N2C1=O [Example 33]	–	< 3000	< 3000	< 3000	< 1000	< 1000
–	–	CN[C@@H](C)C(=O)N[C@H]1CN(C(=O)Nc2ccc(NC(=O)N3CC[C@H]4CC[C@@H](C(=O)N[C@@H]5CCC[C@@H]5c5ccccc5)N4C(=O)[C@@H](NC(=O)[C@H](C)NC)C3)cc2)CC[C@H]2CC[C@@H](C(=O)N[C@@H]3CCC[C@@H]3c3ccccc3)N2C1=O [Example 34]	–	< 1000	< 1000	< 1000	< 100	< 100
